Measured values: article PMC8287724, “Reducing Auditory Nerve Excitability by Acute Antagonism of Ca^2+-Permeable AMPA Receptors” (Frontiers in Synaptic Neuroscience, 2021)

Assays:
H3 histamine GPCR = biological target: T1, H3 histamine GPCR (Homo sapiens, UniProt Q9Y5N1); experiment: Radioligand binding assay, H3 receptor (transfected CHO cells); details: antagonist 1 μM
T1 construct: host or cells: CHO cells
Experimental: (§1) Binding assays were conducted to evaluate the affinity of test compounds IEM-1460 and IEM-1925 (Eurofins Scientific, Inc.) for 15 targets: the human alpha-1 adrenergic (A1) receptor, histaminergic (H)-2 and−3 receptors, and muscarinic acetylcholine receptors-1 to−5 in transfected CHO cells by radioligand binding. The neuronal α4β2 and neuronal α7 cholinergic acetylcholine receptors were tested in transfected SH-SY5Y cells. The histaminergic-1 and−4 receptors were tested in transfected HEK-293 cells. Ion channel testing for AMPA and N-methyl-D-aspartate (NMDA) was performed in cells from the rat cerebral cortex. […] Non-specific binding was determined in the presence of 1 μM of DCPX. […] The filters were dried and then counted for radioactivity in a scintillation counter (Topcount, Packard) using a scintillation cocktail (Microscint 0, Packard). The results are expressed as a percent inhibition of the control radioligand specific binding: 100-[(measured specific binding)/(control specific binding) × 100]. […]
(§2) We tested the metabolic stability of the compounds with in vitro liver microsome stability assays (Table 1, right). […] We evaluated the compounds for potential toxicity with assays that test for inhibition of off-target ion channels and receptors. […]

nAChR alpha4/beta2 = biological target: T2, nAChR alpha4/beta2 (Homo sapiens, UniProt P17787+P43681); experiment: Radioligand binding assay, neuronal α4β2 nicotinic receptor (transfected SH-SY5Y cells); details: antagonist 1 μM
T2 construct: host or cells: SH-SY5Y cells
T2 sequence (P43681 29-627 limits assumed): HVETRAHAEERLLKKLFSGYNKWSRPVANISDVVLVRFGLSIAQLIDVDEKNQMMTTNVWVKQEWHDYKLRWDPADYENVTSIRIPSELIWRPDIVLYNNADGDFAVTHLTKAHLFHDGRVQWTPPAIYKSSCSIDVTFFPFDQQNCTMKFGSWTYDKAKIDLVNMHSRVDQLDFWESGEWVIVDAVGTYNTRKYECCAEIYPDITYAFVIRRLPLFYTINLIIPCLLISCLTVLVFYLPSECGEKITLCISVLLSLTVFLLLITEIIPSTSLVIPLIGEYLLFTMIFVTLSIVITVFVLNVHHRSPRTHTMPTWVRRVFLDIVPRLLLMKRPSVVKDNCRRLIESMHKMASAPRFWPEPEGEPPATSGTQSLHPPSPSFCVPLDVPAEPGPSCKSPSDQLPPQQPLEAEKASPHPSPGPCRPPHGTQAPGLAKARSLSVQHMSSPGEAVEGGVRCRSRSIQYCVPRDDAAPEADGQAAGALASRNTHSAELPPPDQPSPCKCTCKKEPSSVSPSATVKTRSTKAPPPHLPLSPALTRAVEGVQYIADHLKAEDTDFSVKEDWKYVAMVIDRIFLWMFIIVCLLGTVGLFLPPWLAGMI
T2 sequence (P17787 26-502): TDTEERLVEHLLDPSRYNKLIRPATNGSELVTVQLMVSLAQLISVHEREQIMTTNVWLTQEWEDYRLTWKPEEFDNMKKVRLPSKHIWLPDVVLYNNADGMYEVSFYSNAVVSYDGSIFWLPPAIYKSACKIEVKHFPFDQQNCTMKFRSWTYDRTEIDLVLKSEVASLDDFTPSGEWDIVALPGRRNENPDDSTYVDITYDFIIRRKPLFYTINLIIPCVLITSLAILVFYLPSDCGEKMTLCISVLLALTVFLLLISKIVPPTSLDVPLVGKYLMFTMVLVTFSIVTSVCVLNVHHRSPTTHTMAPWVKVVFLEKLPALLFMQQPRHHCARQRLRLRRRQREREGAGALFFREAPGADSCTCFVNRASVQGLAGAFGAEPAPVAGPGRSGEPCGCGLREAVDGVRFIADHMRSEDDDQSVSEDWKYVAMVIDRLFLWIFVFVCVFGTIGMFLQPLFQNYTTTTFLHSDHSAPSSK
Experimental: as §1, §2

[1] = tested on: pyramidal cells (expressing mainly GluA2-containing CI-AMPARs); set-up: method as in Tikhonov et al., 2000; details: rat hippocampus ref Tikhonov et al., 2000; cited from earlier work
nAChR alpha7 = biological target: T3, nAChR alpha7 (Homo sapiens, UniProt P36544); experiment: Radioligand binding assay, neuronal α7 nicotinic receptor (transfected SH-SY5Y cells); details: antagonist 1 μM
T3 construct: host or cells: SH-SY5Y cells
T3 sequence (P36544 23-502): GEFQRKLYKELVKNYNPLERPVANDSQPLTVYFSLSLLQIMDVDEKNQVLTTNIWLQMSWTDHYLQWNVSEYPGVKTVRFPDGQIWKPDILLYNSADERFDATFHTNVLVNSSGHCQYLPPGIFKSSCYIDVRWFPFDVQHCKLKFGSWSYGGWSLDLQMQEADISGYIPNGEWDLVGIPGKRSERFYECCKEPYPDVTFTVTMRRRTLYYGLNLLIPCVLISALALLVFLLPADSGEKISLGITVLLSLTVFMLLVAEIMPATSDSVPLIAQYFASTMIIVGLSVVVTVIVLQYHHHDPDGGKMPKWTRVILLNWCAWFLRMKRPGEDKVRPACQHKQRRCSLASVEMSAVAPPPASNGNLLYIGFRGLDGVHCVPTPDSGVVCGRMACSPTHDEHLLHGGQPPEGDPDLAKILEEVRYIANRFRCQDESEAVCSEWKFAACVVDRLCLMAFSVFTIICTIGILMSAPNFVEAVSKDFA
Experimental: as §1, §2

[2] = In vitro microsomal stability assay, human; type: in vitro ADME; details: pH 7.4; human liver microsomes, 1 μM compound, 37°C; read-out: Half-life (min) Mean (N = 2)
Experimental: (§3) The stability of IEM-1460 in the presence of guinea pig liver microsomes (BioIVT, PN: X008070) or IEM-1925 in the presence of human (BioIVT, PN: M00101), mouse, or guinea pig liver microsomes was evaluated (Paraza Pharma, Inc., Montreal, Quebec, Canada). Both IEM-1925 and IEM-1460 were incubated with microsomes at 37°C for a total of 45 min. Working solutions were prepared in 100 mM potassium phosphate buffer and the final reaction was performed at pH 7.4 in 100 mM potassium phosphate buffer containing 0.5 mg/mL liver microsomal protein. Phase I metabolism was assessed by adding NADPH to a final concentration of 1 mM and collecting samples at time points 0, 5, 15, 30, and 45 min. All collected samples were quenched 1:1 with ice-cold stop solution (1 μM labetalol and 1 μM glyburide in acetonitrile) and centrifuged to remove precipitated protein. […] Samples were analyzed by LC-MS/MS using a Thermo Vanquish UPLC and a Thermo Quantis triple quadrupole mass spectrometer. […] Reference compounds were also assessed to ensure accuracy and precision of experimental protocol: imipramine and verapamil for human liver microsomes, diphenhydramine and verapamil for mouse liver microsomes, and warfarin and verapamil for guinea pig liver microsomes. […] Half-life was determined from a plot of the natural logarithm of the peak area ratio (remaining compound peak area/internal standard peak area) against time. […]

A1 adenosine GPCR = biological target: T4, A1 adenosine GPCR (Homo sapiens, UniProt P30542); experiment: Radioligand binding assay, A1 receptor (transfected CHO cells); details: antagonist 1 μM
T4 construct: host or cells: CHO cells
T4 sequence (P30542 whole entry): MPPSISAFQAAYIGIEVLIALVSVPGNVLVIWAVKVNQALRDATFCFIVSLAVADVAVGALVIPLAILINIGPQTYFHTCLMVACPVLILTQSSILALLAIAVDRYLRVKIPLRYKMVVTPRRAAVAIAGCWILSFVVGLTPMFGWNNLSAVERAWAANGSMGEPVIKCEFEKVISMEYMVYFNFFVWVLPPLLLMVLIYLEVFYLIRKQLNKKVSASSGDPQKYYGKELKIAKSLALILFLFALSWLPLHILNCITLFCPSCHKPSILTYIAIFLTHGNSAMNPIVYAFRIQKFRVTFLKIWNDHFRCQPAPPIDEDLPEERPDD
Experimental: as §1, §2

[3] = In vitro microsomal stability assay, guinea pig; type: in vitro ADME; details: pH 7.4; guinea pig liver microsomes, 1 μM compound, 37°C; read-out: Half-life (min) Mean (N = 2)
Experimental: as §3

M2 acetylcholine GPCR = biological target: T5, M2 acetylcholine GPCR (Homo sapiens, UniProt P08172); experiment: Radioligand binding assay, M2 receptor (transfected CHO cells); details: antagonist 1 μM
T5 construct: host or cells: CHO cells
T5 sequence (P08172 whole entry): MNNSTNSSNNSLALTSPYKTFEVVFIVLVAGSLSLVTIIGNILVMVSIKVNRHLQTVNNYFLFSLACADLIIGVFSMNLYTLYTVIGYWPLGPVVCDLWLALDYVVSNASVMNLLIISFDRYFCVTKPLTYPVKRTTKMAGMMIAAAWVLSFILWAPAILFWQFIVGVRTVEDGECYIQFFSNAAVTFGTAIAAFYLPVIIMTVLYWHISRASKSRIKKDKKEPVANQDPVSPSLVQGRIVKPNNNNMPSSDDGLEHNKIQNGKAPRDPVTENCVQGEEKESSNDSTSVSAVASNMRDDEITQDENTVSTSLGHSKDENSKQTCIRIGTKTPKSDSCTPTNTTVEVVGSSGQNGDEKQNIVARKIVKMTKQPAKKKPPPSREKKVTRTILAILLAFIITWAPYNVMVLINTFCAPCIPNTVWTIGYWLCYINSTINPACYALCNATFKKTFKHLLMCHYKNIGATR
Experimental: as §1, §2

T1 sequence (Q9Y5N1 whole entry): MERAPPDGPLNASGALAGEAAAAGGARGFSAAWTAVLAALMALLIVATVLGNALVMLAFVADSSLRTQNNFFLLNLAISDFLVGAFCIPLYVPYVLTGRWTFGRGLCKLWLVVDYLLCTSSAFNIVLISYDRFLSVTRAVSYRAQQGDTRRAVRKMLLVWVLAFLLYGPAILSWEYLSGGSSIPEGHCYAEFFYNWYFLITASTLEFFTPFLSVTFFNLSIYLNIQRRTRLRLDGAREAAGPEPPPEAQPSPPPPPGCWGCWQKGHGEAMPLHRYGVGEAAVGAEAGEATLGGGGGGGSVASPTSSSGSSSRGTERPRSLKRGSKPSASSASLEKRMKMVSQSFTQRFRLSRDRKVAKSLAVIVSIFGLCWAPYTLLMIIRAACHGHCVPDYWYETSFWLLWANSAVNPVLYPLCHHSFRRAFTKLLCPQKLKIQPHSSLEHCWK

Compound: NCCCCCNC1(c2ccccc2)CCCCC1 [IEM-1925]
- Mean% inhibition (N = 2) of radioligand binding (H3 histamine GPCR): <5%
- Mean% inhibition (N = 2) of radioligand binding (nAChR alpha4/beta2): <1%
- IC50 [1]: > 200 µM
- Mean% inhibition (N = 2) of radioligand binding (nAChR alpha7): <2%
- half-life at 1 μM [2]: > 300 min
- Mean% inhibition (N = 2) of radioligand binding (A1 adenosine GPCR): <1%
- half-life at 1 μM [3]: > 300 min
- Mean% inhibition (N = 2) of radioligand binding (M2 acetylcholine GPCR): <1%

Compound: C[N+](C)(C)CCCCCNCC12CC3CC(CC(C3)C1)C2 [IEM-1460]
- Mean% inhibition (N = 2) of radioligand binding (H3 histamine GPCR): <1%
- Mean% inhibition (N = 2) of radioligand binding (nAChR alpha4/beta2): <1%
- IC50 [1]: > 500 µM
- Mean% inhibition (N = 2) of radioligand binding (nAChR alpha7): <1%
- half-life at 1 μM [2]: > 300 min
- Mean% inhibition (N = 2) of radioligand binding (A1 adenosine GPCR): <1%
- half-life at 1 μM [3]: > 300 min
- Mean% inhibition (N = 2) of radioligand binding (M2 acetylcholine GPCR): <1%
